Laboratory results from patent US9695155B2, “Herbicidal substituted pyrimidinyloxy benzene compounds” (E. I. DU PONT DE NEMOURS AND COMPANY, priority 2013, dated 2017).

Columns and labels:
[1] = tested on: deadnettle; test: Test D postemergence; assay type: in vivo, Lamium amplexicaule
In short: (§1)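 Visual ratings from 0 (no effect) to 100 (complete control) relative to untreated plants were taken 7–21 days after treatment. Chemicals in a surfactant-containing solvent mixture were applied preemergence to seeds in silt loam, or postemergence to plants 2–18 cm tall (1–4 leaves) grown in a peat-based potting medium.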

[2] = tested on: bluegrass; test: Test D postemergence; assay type: in vivo, Poa annua; conditions: Postemergence, scale 0 to 100 (0 no effect, 100 complete control)
In short: as §1

[3] = tested on: bluegrass; test: Test D preemergence; assay type: in vivo, Poa annua
In short: as §1

[4] = tested on: oilseed rape; test: Test D preemergence; assay type: in vivo, Brassica napus
In short: as §1

[5] = tested on: chamomile; test: Test D preemergence; assay type: in vivo, Matricaria inodora
In short: as §1

[6] = tested on: speedwell; test: Test D preemergence; assay type: in vivo, Veronica persica
In short: as §1

[7] = tested on: Italian ryegrass; test: Test D postemergence; assay type: in vivo, Lolium multiflorum
In short: as §1

[8] = tested on: wild buckwheat; test: Test D postemergence; assay type: in vivo, Polygonum convolvulus; conditions: Postemergence, scale 0 to 100 (0 no effect, 100 complete control)
In short: as §1

[9] = tested on: pigweed; test: Test D postemergence; assay type: in vivo, Amaranthus retroflexus
In short: as §1

[10] = tested on: wild buckwheat; test: Test D preemergence; assay type: in vivo, Polygonum convolvulus
In short: as §1

[11] = tested on: wild mustard; test: Test D postemergence; assay type: in vivo, Sinapis arvensis
In short: as §1

[12] = tested on: bromegrass, downy; test: Test D postemergence; assay type: in vivo, Bromus tectorum; conditions: Postemergence, scale 0 to 100 (0 no effect, 100 complete control)
In short: as §1

[13] = 62 g ai/ha, scale 0 to 100 (0 no effect, 100 complete control)
[14] = 125 g ai/ha, scale 0 to 100 (0 no effect, 100 complete control)
[15] = 250 g ai/ha, scale 0 to 100 (0 no effect, 100 complete control)
[16] = 31 g ai/ha, scale 0 (no effect) to 100 (complete control)

Q: For `N#Cc1cccc(Oc2ncc(Cl)cn2)c1-n1cc(-n2ccc(C(F)(F)F)n2)cn1` [Compound 284], which “Plant response rating, Deadnettle” value ([1]; 31 g ai/ha, scale 0-100) is on record?
A: Its value is 70.

Q: What about the “Plant response rating, Deadnettle” value [1, 13] of the same compound?
A: Its value is 100.

Q: And the “Plant response rating, Deadnettle” value [1, 14]?
A: The value was 100.

Q: And the “Plant response rating, Deadnettle” value [1, 15]?
A: The value was 100.

Q: And the “Plant response rating, Bluegrass” value ([2]; 62 g ai/ha)?
A: Its value is 35.

Q: And the “Plant response rating, Bluegrass” value ([2]; 31 g ai/ha)?
A: Its value is 25.

Q: And the “Plant response rating, Bluegrass” value ([2]; 125 g ai/ha)?
A: Its value is 40.

Q: And the “Plant response rating, Bluegrass” value ([2]; 250 g ai/ha)?
A: Its value is 45.

Q: What about the “Plant response rating, Bluegrass” value [3, 16] of the same compound?
A: The value was 0.

Q: And the “Plant response rating, Bluegrass” value ([3]; 62 g ai/ha, scale 0-100)?
A: The value was 15.

Q: And the “Plant response rating, Bluegrass” value ([3]; 125 g ai/ha, scale 0-100)?
A: Its value is 20.

Q: And the “Plant response rating, Bluegrass” value ([3]; 250 g ai/ha, scale 0-100)?
A: Its value is 25.

Q: What about the “Plant response rating, Oilseed Rape” value [4, 16] of the same compound?
A: The value was 0.

Q: What about the “Plant response rating, Oilseed Rape” value ([4]; 62 g ai/ha, scale 0-100) of the same compound?
A: Its value is 0.

Q: And the “Plant response rating, Oilseed Rape” value ([4]; 125 g ai/ha, scale 0-100)?
A: Its value is 10.

Q: What about the “Plant response rating, Oilseed Rape” value ([4]; 250 g ai/ha, scale 0-100) of the same compound?
A: Its value is 10.

Q: What about the “Plant response rating, Chamomile” value [5, 16] of the same compound?
A: Its value is 100.

Q: What about the “Plant response rating, Chamomile” value ([5]; 62 g ai/ha, scale 0-100) of the same compound?
A: Its value is 100.

Q: And the “Plant response rating, Chamomile” value ([5]; 125 g ai/ha, scale 0-100)?
A: The value was 100.

Q: And the “Plant response rating, Chamomile” value ([5]; 250 g ai/ha, scale 0-100)?
A: Its value is 100.

Q: And the “Plant response rating, Speedwell” value [6, 16]?
A: The value was 0.

Q: What about the “Plant response rating, Speedwell” value ([6]; 125 g ai/ha, scale 0-100) of the same compound?
A: The value was 100.

Q: And the “Plant response rating, Speedwell” value ([6]; 250 g ai/ha, scale 0-100)?
A: The value was 100.

Q: What about the “Plant response rating, Ryegrass, Italian” value ([7]; 31 g ai/ha, scale 0-100) of the same compound?
A: Its value is 10.

Q: What about the “Plant response rating, Ryegrass, Italian” value [7, 13] of the same compound?
A: Its value is 10.

Q: And the “Plant response rating, Ryegrass, Italian” value [7, 14]?
A: Its value is 15.

Q: What about the “Plant response rating, Ryegrass, Italian” value [7, 15] of the same compound?
A: Its value is 15.

Q: What about the “Plant response rating, Buckwheat, Wild” value ([8]; 62 g ai/ha) of the same compound?
A: The value was 100.

Q: And the “Plant response rating, Buckwheat, Wild” value ([8]; 31 g ai/ha)?
A: The value was 100.

Q: And the “Plant response rating, Buckwheat, Wild” value ([8]; 125 g ai/ha)?
A: The value was 100.

Q: What about the “Plant response rating, Buckwheat, Wild” value ([8]; 250 g ai/ha) of the same compound?
A: The value was 100.

Q: What about the “Plant response rating, Pigweed” value ([9]; 31 g ai/ha, scale 0-100) of the same compound?
A: The value was 100.

Q: What about the “Plant response rating, Pigweed” value [9, 13] of the same compound?
A: Its value is 100.

Q: What about the “Plant response rating, Pigweed” value [9, 14] of the same compound?
A: Its value is 100.

Q: What about the “Plant response rating, Pigweed” value [9, 15] of the same compound?
A: The value was 100.

Q: And the “Plant response rating, Buckwheat, Wild” value [10, 16]?
A: Its value is 10.

Q: And the “Plant response rating, Buckwheat, Wild” value ([10]; 62 g ai/ha, scale 0-100)?
A: Its value is 20.

Q: What about the “Plant response rating, Buckwheat, Wild” value ([10]; 125 g ai/ha, scale 0-100) of the same compound?
A: The value was 70.

Q: What about the “Plant response rating, Buckwheat, Wild” value ([10]; 250 g ai/ha, scale 0-100) of the same compound?
A: Its value is 100.

Q: What about the “Plant response rating, Mustard, Wild” value ([11]; 31 g ai/ha, scale 0-100) of the same compound?
A: Its value is 100.

Q: What about the “Plant response rating, Mustard, Wild” value [11, 13] of the same compound?
A: Its value is 100.

Q: And the “Plant response rating, Mustard, Wild” value [11, 14]?
A: Its value is 100.

Q: What about the “Plant response rating, Mustard, Wild” value [11, 15] of the same compound?
A: Its value is 100.

Q: And the “Plant response rating, Bromegrass, Downy” value ([12]; 62 g ai/ha)?
A: Its value is 40.

Q: And the “Plant response rating, Bromegrass, Downy” value ([12]; 31 g ai/ha)?
A: The value was 30.

Q: And the “Plant response rating, Bromegrass, Downy” value ([12]; 125 g ai/ha)?
A: The value was 45.

Q: What about the “Plant response rating, Bromegrass, Downy” value ([12]; 250 g ai/ha) of the same compound?
A: Its value is 45.
